Laboratory results published in ChEMBL document CHEMBL3414527, “Engineering potent and selective analogues of GpTx-1, a tarantula venom peptide antagonist of the Na(V)1.7 sodium channel” (J Med Chem, 2015).
Bridge positions count the residues as written; N and C are the ends. Peptide text beside a SMILES is read from it.

Key:
[1] = target: Sodium channel protein type 9 subunit alpha (Homo sapiens, UniProt Q15858); experiment: Inhibition of human NaV1.7 at -140 mV holding potential by whole-cell patch clamp assay
[2] = target: Sodium channel protein type 5 subunit alpha (Homo sapiens, UniProt Q14524); experiment: Inhibition of human NaV1.5 at -140 mV holding potential by whole-cell patch clamp assay
Sequence of Sodium channel protein type 5 subunit alpha (Q14524 whole entry): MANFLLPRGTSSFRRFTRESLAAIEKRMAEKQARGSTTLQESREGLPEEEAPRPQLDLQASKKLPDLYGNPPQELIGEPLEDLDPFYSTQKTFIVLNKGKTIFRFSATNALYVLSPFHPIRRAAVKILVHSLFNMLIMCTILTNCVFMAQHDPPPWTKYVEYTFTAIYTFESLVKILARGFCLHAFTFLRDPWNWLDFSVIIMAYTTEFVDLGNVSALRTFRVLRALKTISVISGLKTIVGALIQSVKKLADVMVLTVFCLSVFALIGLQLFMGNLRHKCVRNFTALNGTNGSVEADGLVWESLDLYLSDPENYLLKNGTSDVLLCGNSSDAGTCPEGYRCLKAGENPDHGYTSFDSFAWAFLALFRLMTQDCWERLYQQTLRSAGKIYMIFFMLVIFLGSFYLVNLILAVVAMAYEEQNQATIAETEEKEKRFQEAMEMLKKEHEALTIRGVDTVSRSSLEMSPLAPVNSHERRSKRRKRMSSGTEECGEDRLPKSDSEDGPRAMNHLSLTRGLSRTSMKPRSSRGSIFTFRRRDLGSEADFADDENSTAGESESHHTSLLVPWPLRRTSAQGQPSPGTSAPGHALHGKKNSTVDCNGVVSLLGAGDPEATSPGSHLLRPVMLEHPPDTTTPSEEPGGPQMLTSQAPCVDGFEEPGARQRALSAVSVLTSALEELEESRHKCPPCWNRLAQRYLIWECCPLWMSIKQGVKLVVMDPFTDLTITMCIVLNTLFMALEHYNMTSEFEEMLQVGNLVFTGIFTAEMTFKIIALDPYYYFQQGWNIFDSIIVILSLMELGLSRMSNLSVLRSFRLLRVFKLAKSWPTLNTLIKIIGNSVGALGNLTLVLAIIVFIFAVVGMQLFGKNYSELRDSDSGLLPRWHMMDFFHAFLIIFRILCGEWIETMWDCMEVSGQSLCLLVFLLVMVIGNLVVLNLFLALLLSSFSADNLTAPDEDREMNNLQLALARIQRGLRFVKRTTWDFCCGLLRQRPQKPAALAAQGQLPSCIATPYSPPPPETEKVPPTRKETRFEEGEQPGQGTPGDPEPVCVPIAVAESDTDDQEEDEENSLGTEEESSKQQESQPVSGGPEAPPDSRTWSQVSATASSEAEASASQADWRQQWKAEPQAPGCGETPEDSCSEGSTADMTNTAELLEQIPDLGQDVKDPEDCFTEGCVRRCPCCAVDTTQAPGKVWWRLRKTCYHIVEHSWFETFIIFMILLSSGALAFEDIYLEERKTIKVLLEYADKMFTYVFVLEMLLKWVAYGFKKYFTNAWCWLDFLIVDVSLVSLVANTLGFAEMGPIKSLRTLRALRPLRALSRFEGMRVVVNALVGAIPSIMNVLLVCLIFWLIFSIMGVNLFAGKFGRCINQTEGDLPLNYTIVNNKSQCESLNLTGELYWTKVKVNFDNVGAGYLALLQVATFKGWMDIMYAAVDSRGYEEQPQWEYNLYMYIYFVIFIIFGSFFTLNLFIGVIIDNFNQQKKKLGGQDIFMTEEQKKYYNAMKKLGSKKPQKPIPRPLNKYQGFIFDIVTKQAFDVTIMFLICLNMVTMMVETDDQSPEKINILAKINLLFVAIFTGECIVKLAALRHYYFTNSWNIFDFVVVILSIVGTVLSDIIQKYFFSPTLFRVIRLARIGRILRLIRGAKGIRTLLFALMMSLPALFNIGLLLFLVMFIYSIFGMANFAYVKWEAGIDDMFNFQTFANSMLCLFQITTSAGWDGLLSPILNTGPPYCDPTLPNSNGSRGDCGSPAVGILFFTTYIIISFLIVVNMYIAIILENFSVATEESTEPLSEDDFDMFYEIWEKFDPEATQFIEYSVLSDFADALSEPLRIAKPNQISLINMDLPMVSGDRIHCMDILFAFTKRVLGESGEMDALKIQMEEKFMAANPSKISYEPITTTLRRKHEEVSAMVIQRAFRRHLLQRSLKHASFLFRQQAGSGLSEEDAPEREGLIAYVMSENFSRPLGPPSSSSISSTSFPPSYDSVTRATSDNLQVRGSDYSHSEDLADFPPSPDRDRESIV

Sequence of Sodium channel protein type 9 subunit alpha (Q15858 whole entry): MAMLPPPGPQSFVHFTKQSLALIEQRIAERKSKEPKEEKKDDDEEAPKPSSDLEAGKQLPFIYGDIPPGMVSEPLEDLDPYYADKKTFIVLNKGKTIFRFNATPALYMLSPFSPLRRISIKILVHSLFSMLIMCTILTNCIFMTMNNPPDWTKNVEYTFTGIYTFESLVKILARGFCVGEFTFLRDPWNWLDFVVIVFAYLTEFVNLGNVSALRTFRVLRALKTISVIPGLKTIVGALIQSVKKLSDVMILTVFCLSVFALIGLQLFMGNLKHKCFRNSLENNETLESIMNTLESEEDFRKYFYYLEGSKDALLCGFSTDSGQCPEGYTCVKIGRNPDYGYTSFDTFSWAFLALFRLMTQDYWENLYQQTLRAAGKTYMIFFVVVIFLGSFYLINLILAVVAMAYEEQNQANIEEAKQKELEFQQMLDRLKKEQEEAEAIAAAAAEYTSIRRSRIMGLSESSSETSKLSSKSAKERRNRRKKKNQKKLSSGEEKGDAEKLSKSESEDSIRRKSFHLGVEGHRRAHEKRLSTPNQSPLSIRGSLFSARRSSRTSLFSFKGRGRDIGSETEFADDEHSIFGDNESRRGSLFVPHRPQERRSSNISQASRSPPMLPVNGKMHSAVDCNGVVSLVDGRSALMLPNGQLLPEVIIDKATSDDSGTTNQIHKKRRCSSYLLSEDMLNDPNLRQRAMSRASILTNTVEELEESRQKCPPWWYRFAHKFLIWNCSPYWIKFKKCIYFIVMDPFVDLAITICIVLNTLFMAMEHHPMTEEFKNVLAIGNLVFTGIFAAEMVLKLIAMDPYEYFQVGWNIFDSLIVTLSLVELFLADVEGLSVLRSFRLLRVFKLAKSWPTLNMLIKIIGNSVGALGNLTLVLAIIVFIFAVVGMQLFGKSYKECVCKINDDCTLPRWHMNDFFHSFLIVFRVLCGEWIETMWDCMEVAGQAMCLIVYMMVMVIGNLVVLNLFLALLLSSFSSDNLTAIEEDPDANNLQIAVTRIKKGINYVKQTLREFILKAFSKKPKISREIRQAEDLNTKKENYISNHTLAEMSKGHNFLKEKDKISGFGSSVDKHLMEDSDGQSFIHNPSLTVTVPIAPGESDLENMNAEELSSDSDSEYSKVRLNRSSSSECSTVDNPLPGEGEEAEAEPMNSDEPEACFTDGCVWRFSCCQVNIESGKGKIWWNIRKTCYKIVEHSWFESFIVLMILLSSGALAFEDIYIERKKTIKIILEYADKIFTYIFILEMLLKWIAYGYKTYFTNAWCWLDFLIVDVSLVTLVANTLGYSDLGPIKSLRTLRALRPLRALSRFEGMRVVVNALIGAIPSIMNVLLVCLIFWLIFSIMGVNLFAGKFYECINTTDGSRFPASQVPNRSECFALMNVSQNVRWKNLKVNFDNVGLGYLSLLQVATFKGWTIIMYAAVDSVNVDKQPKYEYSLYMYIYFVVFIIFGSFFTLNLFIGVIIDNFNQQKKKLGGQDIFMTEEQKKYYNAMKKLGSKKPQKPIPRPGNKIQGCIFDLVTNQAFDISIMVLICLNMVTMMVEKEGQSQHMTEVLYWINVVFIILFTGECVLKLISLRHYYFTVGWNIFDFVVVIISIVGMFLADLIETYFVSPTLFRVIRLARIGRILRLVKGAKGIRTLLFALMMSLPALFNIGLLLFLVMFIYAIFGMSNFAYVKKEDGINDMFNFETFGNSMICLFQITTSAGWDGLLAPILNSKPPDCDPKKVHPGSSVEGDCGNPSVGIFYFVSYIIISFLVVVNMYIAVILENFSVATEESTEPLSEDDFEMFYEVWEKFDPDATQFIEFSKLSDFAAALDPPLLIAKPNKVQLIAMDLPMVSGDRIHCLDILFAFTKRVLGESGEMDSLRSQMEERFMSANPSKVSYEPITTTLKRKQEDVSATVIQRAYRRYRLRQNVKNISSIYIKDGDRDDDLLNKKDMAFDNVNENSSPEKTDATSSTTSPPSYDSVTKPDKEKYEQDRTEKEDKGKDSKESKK

Q: For CC[C@H](C)[C@@H]1NC(=O)[C@@H]2CSSC[C@@H]3NC(=O)[C@H](C(C)C)NC(=O)[C@H](CC(C)C)NC(=O)[C@H](CC(N)=O)NC(=O)[C@@H]4CCCN4C(=O)[C@H](CCCNC(=N)N)NC(=O)[C@H](CSSC[C@H](NC(=O)[C@@H](N)CC(=O)O)C(=O)N[C@@H](CC(C)C)C(=O)NCC(=O)N[C@@H](C)C(=O)N[C@@H](Cc4cccc5ccccc45)C(=O)N[C@@H](CCCNC(=N)N)C(=O)N[C@@H](CCCCN)C(=O)N2)NC(=O)[C@H](CSSC[C@@H](C(=O)N[C@@H](CCCCN)C(=O)N[C@@H](Cc2ccc(O)cc2)C(=O)N[C@H](C(=O)N[C@@H](Cc2ccccc2)C(N)=O)C(C)C)NC(=O)[C@H](Cc2c[nH]c4ccccc24)NC(=O)[C@H](CCCCN)NC(=O)[C@H](Cc2cnc[nH]2)NC(=O)[C@H]([C@@H](C)O)NC(=O)[C@H](CCCNC(=N)N)NC(=O)[C@H](CO)NC3=O)NC(=O)[C@H](CCCCN)NC(=O)[C@H](CC(=O)O)NC(=O)[C@H](CC(N)=O)NC(=O)[C@H](CC(=O)O)NC(=O)[C@@H]2CCCN2C1=O, which IC50 [1] is on record?
A: 3 nM

Q: And the IC50 [2]?
A: 3600 nM

Q: With CC[C@H](C)[C@@H]1NC(=O)[C@@H]2CSSC[C@@H]3NC(=O)[C@H](C(C)C)NC(=O)[C@H](CC(C)C)NC(=O)[C@H](CC(N)=O)NC(=O)[C@@H]4CCCN4C(=O)[C@H](C)NC(=O)[C@H](CSSC[C@H](NC(=O)[C@@H](N)CC(=O)O)C(=O)N[C@@H](CC(C)C)C(=O)NCC(=O)N[C@@H](Cc4ccccc4)C(=O)N[C@@H](CCSC)C(=O)N[C@@H](CCCNC(=N)N)C(=O)N[C@@H](CCCCN)C(=O)N2)NC(=O)[C@H](CSSC[C@@H](C(=O)N[C@@H](CCCCN)C(=O)N[C@@H](Cc2ccc(O)cc2)C(=O)N[C@H](C(=O)N[C@@H](Cc2ccccc2)C(N)=O)C(C)C)NC(=O)[C@H](Cc2c[nH]c4ccccc24)NC(=O)[C@H](CCCCN)NC(=O)[C@H](Cc2cnc[nH]2)NC(=O)[C@H]([C@@H](C)O)NC(=O)[C@H](CCCNC(=N)N)NC(=O)[C@H](CO)NC3=O)NC(=O)[C@H](CCCCN)NC(=O)[C@H](CC(=O)O)NC(=O)[C@H](CC(N)=O)NC(=O)[C@H](CC(=O)O)NC(=O)[C@@H]2CCCN2C1=O (H-DCLGFMRKCIPDNDKCCAPNLVCSRTHKWCKYVF-NH2; disulfide 2-17, 9-23, 16-30) as the compound, how does the IC50 [1] read?
A: 130 nM

Q: And the IC50 [2]?
A: > 20000 nM

Q: Which results are given for CC[C@H](C)[C@@H]1NC(=O)[C@@H]2CSSC[C@@H]3NC(=O)[C@H](C(C)C)NC(=O)[C@H](CC(C)C)NC(=O)[C@H](CC(N)=O)NC(=O)[C@@H]4CCCN4C(=O)[C@H](CCCNC(=N)N)NC(=O)[C@H](CSSC[C@H](NC(=O)[C@@H](N)CC(=O)O)C(=O)N[C@@H](CC(C)C)C(=O)NCC(=O)N[C@@H](C)C(=O)N[C@@H](Cc4ccccc4)C(=O)N[C@@H](CCCNC(=N)N)C(=O)N[C@@H](CCCCN)C(=O)N2)NC(=O)[C@H](CSSC[C@@H](C(=O)N[C@@H](CCCCN)C(=O)N[C@@H](Cc2ccc(O)cc2)C(=O)N[C@H](C(=O)N[C@@H](Cc2ccccc2)C(N)=O)C(C)C)NC(=O)[C@H](Cc2c[nH]c4ccccc24)NC(=O)[C@H](CCCNC(=N)N)NC(=O)[C@H](Cc2cnc[nH]2)NC(=O)[C@H](CC(C)C)NC(=O)[C@H](CCCNC(=N)N)NC(=O)[C@H](CO)NC3=O)NC(=O)[C@H](CCCCN)NC(=O)[C@H](CC(=O)O)NC(=O)[C@H](CC(N)=O)NC(=O)[C@H](CC(=O)O)NC(=O)[C@@H]2CCCN2C1=O (H-DCLGAFRKCIPDNDKCCRPNLVCSRLHRWCKYVF-NH2; disulfide 2-17, 9-23, 16-30)?
A: IC50 [1]: 1.6 nM; IC50 [2]: > 10000 nM

Q: With CC[C@H](C)[C@@H]1NC(=O)[C@@H]2CSSC[C@@H]3NC(=O)[C@H](C(C)C)NC(=O)[C@H](CC(C)C)NC(=O)[C@H](CC(N)=O)NC(=O)[C@@H]4CCCN4C(=O)[C@H](CCCNC(=N)N)NC(=O)[C@H](CSSC[C@H](NC(=O)[C@@H](N)CC(=O)O)C(=O)N[C@@H](CC(C)C)C(=O)NCC(=O)N[C@@H](Cc4ccccc4)C(=O)N[C@@H](CC4CCCCC4)C(=O)N[C@@H](CCCNC(=N)N)C(=O)N[C@@H](CCCCN)C(=O)N2)NC(=O)[C@H](CSSC[C@@H](C(=O)N[C@@H](CCCCN)C(=O)N[C@@H](Cc2ccc(O)cc2)C(=O)N[C@H](C(=O)N[C@@H](Cc2ccccc2)C(N)=O)C(C)C)NC(=O)[C@H](Cc2c[nH]c4ccccc24)NC(=O)[C@H](CCCCN)NC(=O)[C@H](Cc2cnc[nH]2)NC(=O)[C@H]([C@@H](C)O)NC(=O)[C@H](CCCNC(=N)N)NC(=O)[C@H](CO)NC3=O)NC(=O)[C@H](CCCCN)NC(=O)[C@H](CC(=O)O)NC(=O)[C@H](CC(N)=O)NC(=O)[C@H](CC(=O)O)NC(=O)[C@@H]2CCCN2C1=O as the compound, how does the IC50 [1] read?
A: 4 nM

Q: What about the IC50 [2] of the same compound?
A: 2800 nM

Q: How did the IC50 [1] turn out when CC[C@H](C)[C@@H]1NC(=O)[C@@H]2CSSC[C@@H]3NC(=O)[C@H](C(C)C)NC(=O)[C@H](CC(C)C)NC(=O)[C@H](CC(N)=O)NC(=O)[C@@H]4CCCN4C(=O)[C@H](CCCNC(=N)N)NC(=O)[C@H](CSSC[C@H](NC(=O)[C@@H](N)CC(=O)O)C(=O)N[C@@H](CC(C)C)C(=O)NCC(=O)N[C@@H](Cc4ccccc4)C(=O)N[C@@H](Cc4ccccc4)C(=O)N[C@@H](CCCNC(=N)N)C(=O)N[C@@H](CCCCN)C(=O)N2)NC(=O)[C@H](CSSC[C@@H](C(=O)N[C@@H](CCCCN)C(=O)N[C@@H](Cc2ccc(O)cc2)C(=O)N[C@H](C(=O)N[C@@H](Cc2ccccc2)C(N)=O)C(C)C)NC(=O)[C@H](Cc2c[nH]c4ccccc24)NC(=O)[C@H](CCCCN)NC(=O)[C@H](Cc2cnc[nH]2)NC(=O)[C@H]([C@@H](C)O)NC(=O)[C@H](CCCNC(=N)N)NC(=O)[C@H](CO)NC3=O)NC(=O)[C@H](CCCCN)NC(=O)[C@H](CC(=O)O)NC(=O)[C@H](CC(N)=O)NC(=O)[C@H](CC(=O)O)NC(=O)[C@@H]2CCCN2C1=O (H-DCLGFFRKCIPDNDKCCRPNLVCSRTHKWCKYVF-NH2; disulfide 2-17, 9-23, 16-30) was run?
A: 19 nM

Q: And the IC50 [2]?
A: 3000 nM

Q: For CC[C@H](C)[C@@H]1NC(=O)CNC(=O)[C@H](CC(C)C)NC(=O)[C@@H](NC(=O)[C@@H](N)CC(=O)O)CSSC[C@@H]2NC(=O)[C@@H]3CSSC[C@@H](C(=O)N[C@@H](CCCCN)C(=O)N[C@@H](Cc4ccc(O)cc4)C(=O)N[C@H](C(=O)N[C@@H](Cc4ccccc4)C(N)=O)C(C)C)NC(=O)[C@H](Cc4c[nH]c5ccccc45)NC(=O)[C@H](CCCCN)NC(=O)[C@H](Cc4cnc[nH]4)NC(=O)[C@H]([C@@H](C)O)NC(=O)[C@H](CCCNC(=N)N)NC(=O)[C@H](CO)NC(=O)[C@H](CSSC[C@H](NC(=O)[C@H](CCCCN)NC(=O)[C@H](CCCNC(=N)N)NC(=O)[C@H](CCSC)NC1=O)C(=O)N[C@@H]([C@@H](C)CC)C(=O)N1CCC[C@H]1C(=O)N[C@@H](CC(=O)O)C(=O)N[C@@H](CC(N)=O)C(=O)N[C@@H](CC(=O)O)C(=O)N[C@@H](CCCCN)C(=O)N3)NC(=O)[C@H](C(C)C)NC(=O)[C@H](CC(C)C)NC(=O)[C@H](CC(N)=O)NC(=O)[C@@H]1CCCN1C(=O)[C@H](CCCNC(=N)N)NC2=O (H-DCLGIMRKCIPDNDKCCRPNLVCSRTHKWCKYVF-NH2; disulfide 2-17, 9-23, 16-30), which IC50 [1] is on record?
A: 9 nM

Q: And the IC50 [2]?
A: > 10000 nM

Q: For CC[C@H](C)[C@@H]1NC(=O)[C@@H]2CSSC[C@@H]3NC(=O)[C@H](C(C)C)NC(=O)[C@H](CC(C)C)NC(=O)[C@H](CC(N)=O)NC(=O)[C@@H]4CCCN4C(=O)[C@H](CCCNC(=N)N)NC(=O)[C@H](CSSC[C@H](NC(=O)[C@@H](N)CC(=O)O)C(=O)N[C@@H](CC(C)C)C(=O)NCC(=O)N[C@@H](Cc4ccccc4)C(=O)N[C@@H](CCSC)C(=O)N[C@@H](CCCNC(=N)N)C(=O)N[C@@H](CCCCN)C(=O)N2)NC(=O)[C@H](CSSC[C@@H](C(=O)N[C@@H](CCCCN)C(=O)N[C@@H](Cc2ccc(O)cc2)C(=O)N[C@H](C(=O)N[C@@H](Cc2ccccc2)C(N)=O)C(C)C)NC(=O)[C@H](Cc2c[nH]c4ccccc24)NC(=O)[C@H](CCCCN)NC(=O)[C@H](Cc2cnc[nH]2)NC(=O)[C@H](C)NC(=O)[C@H](CCCNC(=N)N)NC(=O)[C@H](CO)NC3=O)NC(=O)[C@H](CCCCN)NC(=O)[C@H](CC(=O)O)NC(=O)[C@H](CC(N)=O)NC(=O)[C@H](CC(=O)O)NC(=O)[C@@H]2CCCN2C1=O (H-DCLGFMRKCIPDNDKCCRPNLVCSRAHKWCKYVF-NH2; disulfide 2-17, 9-23, 16-30), which IC50 [1] is on record?
A: 260 nM

Q: What about the IC50 [2] of the same compound?
A: > 5000 nM

Q: For CC[C@H](C)[C@@H]1NC(=O)[C@@H]2CSSC[C@@H]3NC(=O)[C@H](C(C)C)NC(=O)[C@H](CC(C)C)NC(=O)[C@H](CC(N)=O)NC(=O)[C@@H]4CCCN4C(=O)[C@H](CCCNC(=N)N)NC(=O)[C@H](CSSC[C@H](NC(=O)[C@@H](N)CC(=O)O)C(=O)N[C@@H](CC(C)C)C(=O)NCC(=O)N[C@@H](Cc4ccccc4)C(=O)N[C@@H](CCSC)C(=O)N[C@@H](CCCNC(=N)N)C(=O)N[C@@H](CCCCN)C(=O)N2)NC(=O)[C@H](CSSC[C@@H](C(=O)N[C@@H](CCCCN)C(=O)N[C@@H](Cc2ccc(O)cc2)C(=O)N[C@H](C(=O)N[C@@H](Cc2ccccc2)C(N)=O)C(C)C)NC(=O)[C@H](Cc2c[nH]c4ccccc24)NC(=O)[C@H](CCCCN)NC(=O)[C@H](C)NC(=O)[C@H]([C@@H](C)O)NC(=O)[C@H](CCCNC(=N)N)NC(=O)[C@H](CO)NC3=O)NC(=O)[C@H](CCCCN)NC(=O)[C@H](CC(=O)O)NC(=O)[C@H](CC(N)=O)NC(=O)[C@H](CC(=O)O)NC(=O)[C@@H]2CCCN2C1=O (H-DCLGFMRKCIPDNDKCCRPNLVCSRTAKWCKYVF-NH2; disulfide 2-17, 9-23, 16-30), which IC50 [1] is on record?
A: 970 nM

Q: And the IC50 [2]?
A: > 5000 nM
